Measurements reported in patent US4487831A, “Process for the conversion of cellulose to glucose” (Research Corporation, priority 1982, dated 1984).
Like-named read-outs stand apart in the source and are kept apart here.

Legend:
[1] = system: purified cellobiase from Aspergillus terreus (ATCC 20514); assay: Km of purified cellobiase for cellobiose; type: biochemical; conditions: substrate cellobiose
Method: The activity on cellobiose was determined by two different methods. In the first method 0.4 ml of the substrate, 12.5 mM cellobiose in 0.0625M sodium citrate buffer (pH 4.8), was preheated to 50° C., then 0.1 ml of the preheated enzyme solution was added to the substrate and the tubes stoppered. Each sample was incubated for 1.5 minutes placed in a boiling water bath for 30 seconds and then immediately cooled in an ice bath. This reaction mixture was added to 5 ml of the glucose oxidase reagent from a glucose assay kit (Sigma Chemical Co.) and the amount of glucose produced from cellobiose hydrolysis was determined spectrophometrically.
In the second method the amount of glucose produced was measured on a high pressure liquid chromatograph. The cellobiose substrate consisted of 0.03M cellobiose in 0.075M sodium citrate buffer (pH 4.8). The substrate and enzyme solution was preheated to 50° C., then 0.25 ml of the enzyme solution was added to 0.5 ml of the substrate and incubated for 10 minutes. […]
Using cellobiose as the substrate, the purified cellobiase enzyme from Aspergillus terreus was capable of producing 215 micromoles of glucose from cellobiose per minute per milligram of enzyme protein. […] The specific activity of our purified cellobiase is expressed as 215 units per mg protein. […]

[2] = system: cellobiase from Aspergillus phoenicis; conditions: Table 3; substrate cellobiose; as reported in the literature; cited from earlier work
[3] = system: cellobiase from Trichoderma reesei; conditions: Table 3; substrate cellobiose; as reported in the literature; cited from earlier work
[4] = molecular target: purified cellobiase from Aspergillus terreus (ATCC 20514); assay: Glucose inhibition of purified cellobiase, PNPG as substrate; type: biochemical
Method: The β-glucosidase activity was routinely determined using p-nitrophenyl-β-D-glucoside (PNPG) as the substrate. Two milliliters of a 10 mM PNPG solution in 0.05M sodium citrate buffer solution (pH 4.8) were heated to 50° C. Then […] of the enzyme solution was added to the substrate and incubated for 15 minutes. After incubation, 3 ml of 1.0M aqueous sodium carbonate solution were added to stop the reaction and develop the color. The absorbance was read at 400 nm and the amount of p-nitrophenol liberated was determined from a standard curve. The time of incubation varied depending on the activity of the enzyme preparation tested. A unit (IU) of activity was defined as the amount of enzyme required to liberate one micromole of p-nitrophenol per minute from the substrate.
Glucose is a competitive inhibitor of the cellobiase enzyme from Aspergillus terreus. […] The Ki is the concentration of inhibitor required to slow the reaction down to one-half its maximum velocity, therefore, the larger the Ki the less inhibitory the inhibitor is.

[5] = molecular target: T1, cellobiase from Alcaligenes faecalis (Agrobacterium sp., UniProt P12614); conditions: read-out: Ki (molar); Table 4; inhibitor glucose; type of inhibition competitive; reference (1) Ivanova et al 1980; cited from earlier work
T1 sequence (P12614 1-459): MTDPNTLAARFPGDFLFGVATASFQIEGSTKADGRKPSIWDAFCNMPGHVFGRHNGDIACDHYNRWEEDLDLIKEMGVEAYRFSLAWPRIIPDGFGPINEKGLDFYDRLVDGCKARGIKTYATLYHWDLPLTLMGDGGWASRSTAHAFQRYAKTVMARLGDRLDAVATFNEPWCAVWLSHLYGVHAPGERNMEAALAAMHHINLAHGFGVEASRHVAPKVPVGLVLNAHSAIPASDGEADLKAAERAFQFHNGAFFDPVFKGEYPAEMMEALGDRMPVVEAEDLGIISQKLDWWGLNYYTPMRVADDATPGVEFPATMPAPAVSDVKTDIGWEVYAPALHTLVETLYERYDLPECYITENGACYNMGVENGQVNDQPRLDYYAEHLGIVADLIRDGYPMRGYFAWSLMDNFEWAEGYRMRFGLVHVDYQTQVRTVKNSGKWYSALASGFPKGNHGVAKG

[6] = molecular target: cellobiase from Lenzites trabes; conditions: Table 4; inhibitor glucose; type of inhibition noncompetitive; reference (2) Herr et al 1978; cited from earlier work
[7] = molecular target: cellobiase from Phanerochaete chrysosporium; conditions: Table 4; inhibitor glucose; type of inhibition competitive; reference (3) Smith and Gold 1979; cited from earlier work

Structure (SMILES)	Km ([1]; Table 3, read-out: Km) [µM]	Km ([1]; purified enzyme, pH 4.8, 50° C., read-out: affinity (Km) for cellobiose) [µM]	Km [2] [µM]	Km [3] [µM]	Ki ([4]; Table 4, inhibitor glucose, type of inhibition competitive, read-out: Ki) [mM]	Ki ([4]; competitive inhibitor, p-nitrophenyl-β-D-glucoside as substrate, read-out: Ki dissociation constant for glucose) [mM]	Ki [5] [mM]	Ki [6] [mM]	Ki [7] [mM]
OC[C@H]1O[C@@H](O[C@H]2[C@H](O)[C@@H](O)C(O)O[C@@H]2CO)[C@H](O)[C@@H](O)[C@@H]1O (stereo partly drawn) [cellobiose]	400	400	750	3300	–	–	–	–	–
OC[C@H]1OC(O)[C@H](O)[C@@H](O)[C@@H]1O (stereo partly drawn) [glucose]	–	–	–	–	3.5	3.5	3	2.7	0.5
